# Data from patent publication US10160785B2, “Antimicrobial peptides and their use for the treatment of topical infections” (priority 2015, dated 2018).
# Assays:
# [1] = system: Candida albicans ATCC MYA-2876; test: microbe, parasite or virus in culture; assay type: cell-based; conditions: Candida albicans; RPMI broth microdilution, 35° C., 48 hours, visual; read-out: Antifungal activity MIC C. albicans ATCC MYA-2876
# Protocol: (§1) All yeasts Candida albicans (Olomouc) and ATCC MYA-2876, Candida glabrata ATCC 2001 and DSY 565, Candida dubliniensis ATCC MYA-646, Candida krusei ATCC 6258 and Candida tropicalis ATCC 750 were sub-cultured from sterile vials onto Sabouraud dextrose agar, which was composed of 40 g dextrose (Penta, Czech Republic), 10 g peptone (OXOID, Great Britain) and 17 g agar (OXOID), dissolved in 1 l of distilled water, and cultivated for 24 hours at 35° C.
# (§2) All strains were stored in a way that minimizes the possibility of mutation. Candida spp. were grown overnight in liquid YPD medium which is composed of 10 g yeast extract (DIFCO, USA), 20 g peptone (OXOID), and 20 g dextrose (Penta) dissolved in 1 l distilled water. Then the overnight culture was cryogenically preserved by suspending in 50% glycerol solution (1:1) in small vials and stored at −80° C.
# (§3) The inoculum was prepared by picking five colonies from 24-hour-old cultures of Candida spp. The colonies were suspended in 1 ml of sterile saline solution and vortexed for 15 seconds. Optical density of the suspension was adjusted spectrophotometrically by adding sterile saline solution to produce optical density of 0.18 at 600 nm. A working suspension was made by a 1:50 dilution followed by a 1:20 dilution of the stock suspension with RPMI 1640 broth medium which was composed of L-glutamine without NaHCO3 (BioSera, France), and with 0.165 mol.l^−1 MOPS (Duchefa, Netherland)—further as RPMI broth medium.
# (§4) The broth microdilution test was performed by using sterile, disposable, multi-well microdilution plates (96-well). The peptides in the concentrations 0.625-160 μmol.l^−1 were pipetted into the wells in 100 μl volumes. Each well of the plate was inoculated with 100 μl of the diluted inoculum suspension. Final yeast density in each well was 5×10^2 up to 2.5×10^3 CFU/ml. The microdilution plates were incubated without shaking at 35° C. and observed for the presence or absence of visible growth for 48 hours.
# (§5) Drug-free medium without inoculation served as negative control; the growth positive control contained inoculated drug-free medium. Amphotericin B was used as control drug to ensure quality of Candida strains.
# (§6) The minimal inhibition concentrations (MICs) were visually determined 48 hours after inoculation. The MIC values were defined as the lowest concentration in which no observable growth is noticeable.
# (§7) All yeast isolates were obtained from the Institute of Physiology of the Academy of Sciences of the Czech Republic. Candida albicans (Olomouc) came from the Faculty of Medicine and Dentistry, Palacý University Olomouc.
# [2] = system: Candida glabrata ATCC 2001; test: microbe, parasite or virus in culture; assay type: cell-based; conditions: Nakaseomyces glabratus, ATCC2001; RPMI broth microdilution, 35° C., 48 hours, visual; read-out: Antifungal activity MIC C. glabrata ATCC 2001
# Protocol: as §1, §2, §3, §4, §5, §6, §7
# Candida glabrata DSY 565 = test: microbe, parasite or virus in culture; assay type: cell-based; conditions: Nakaseomyces glabratus, DSY565; RPMI broth microdilution, 35° C., 48 hours, visual; read-out: Antifungal activity MIC C. glabrata DSY 565
# Protocol: as §1, §2, §3, §4, §5, §6, §7
# [3] = system: Candida dubliniensis ATCC MYA-646; test: microbe, parasite or virus in culture; assay type: cell-based; conditions: Candida dubliniensis; RPMI broth microdilution, 35° C., 48 hours, visual; read-out: Antifungal activity MIC C. dubliniensis ATCC MYA-646
# Protocol: as §1, §2, §3, §4, §5, §6, §7
# Candida krusei ATCC 6258 = test: microbe, parasite or virus in culture; assay type: cell-based; conditions: Pichia kudriavzevii, ATCC6258; RPMI broth microdilution, 35° C., 48 hours, visual; read-out: Antifungal activity MIC C. krusei ATCC 6258
# Protocol: as §1, §2, §3, §4, §5, §6, §7
# [4] = system: Candida tropicalis ATCC 750; test: microbe, parasite or virus in culture; assay type: cell-based; conditions: Candida tropicalis, ATCC750; RPMI broth microdilution, 35° C., 48 hours, visual; read-out: Antifungal activity MIC C. tropicalis ATCC 750
# Protocol: as §1, §2, §3, §4, §5, §6, §7
# [5] = system: Candida albicans (Olomouc); test: microbe, parasite or virus in culture; assay type: cell-based; conditions: Candida albicans; RPMI broth microdilution, 35° C., 48 hours, visual; read-out: Antifungal activity MIC C. albicans Olomouc
# Protocol: as §1, §2, §3, §4, §5, §6, §7
# [6] = system: Candida albicans (Olomouc) biofilm; test: C. albicans biofilm, remaining metabolic activity (XTT); assay type: cell-based
# Protocol: Candida albicans (Olomouc) was sub-cultured overnight in YPD medium (10 g yeast extract (DIFCO, USA), 20 g peptone (OXOID), 20 g glucose (Penta) dissolved in 1 L of distilled water) at constant shaking (100 RPM) at 37° C. Next day, the overnight culture was diluted 1:100 into fresh YPD medium and incubated at constant shaking (200 RPM) at 37° C. until the mid-exponential growth phase was reached. Then the cells were harvested and washed twice by centrifugation in physiological solution (5000 RPM; 5 min). Cells were suspended in sterile salt solution and their optical density was determined at 600 nm.
# A final yeast suspension was prepared at a cell density of 1×10^6 CFU (corresponding to optical density of 0.17 at 600 nm) in RPMI 1640 medium with L-glutamine (BioSera), NaHCO3 (2 g/l; Penta) and 0.165 mol.l^−1 MOPS (Duchefa)—further as RPMI broth medium 1.
# Biofilms were formed on commercially available sterile, polystyrene, flat-bottomed, 96-well microtiter plates (TPP, SW). Cell suspension (100 μl) was pipetted into selected wells of a microtiter plate and incubated without shaking for 2 hours at 37° C. Afterwards, the wells were washed twice with sterile PBS buffer (1.44 g Na2HPO4, 0.24 g KH2PO4, 0.2 g KCl and 8 g NaCl in 1 l distilled water, pH=7; Penta). Fresh RPMI broth medium 1 (100 μl) was added to each well and the plate was sealed with parafilm and incubated without shaking for 48 hours at 37° C.
# Planktonic and non-adherent cells were removed by threefold washing of the biofilm with sterile PBS buffer (200 μl). A twofold serial dilution was used to reach required peptide concentration (in RPMI broth medium 1) in each well. Peptide concentrations range was between 0.39-200 μmol.l^−1. Plates were then sealed with parafilm and incubated for 20 hours at 37° C.
# The metabolic activity of surviving Candida cells in the treated biofilm was determined by staining with XTT (2,3-Bis(2-methoxy-4-nitro-5-sulphophenyl)-2H-tetrazolium-5-carboxanilide). Stock solution of PMS (phenazine methosulfate; 7.5 g/l; SIGMA, Czech Republic) stored at −20° C. was diluted in PBS buffer 1:100. Diluted PMS was further mixed (2:25) with stock solution of XTT (0.5 g/l; Alchimica, Slovakia) dissolved in PBS/RPMI broth medium (1:1). Mixture (100 μl) of PMS and XTT was added into treated biofilm in the wells and incubated for 90 min at 37° C. Then the intensity of staining in each well was measured as absorbance at 540 nm on a Tecan Infinite M200 Pro reader (Tecan GmbH, Austria). Remaining metabolic activity of the cells in the biofilm was expressed for each well in percentage and calculated as follows:
# [formula] where A is the absorbance of tested compound, ABL is the absorbance of negative control and AC is the absorbance of control untreated biofilm. The non-inoculated wells served as negative control. Inoculated wells not treated with compound served as positive control. Amphotericin B was used as control drug to ensure quality of Candida albicans. The values of remaining metabolic activity of treated biofilms are shown at Table 5.
# [7] = system: S. aureus (Liberec) biofilm; test: Bacterial biofilm, remaining metabolic activity (MTT); assay type: cell-based, Staphylococcus aureus; conditions: remaining metabolic activity of biofilm, 20 h
# Protocol: (§8) Inoculum of S. aureus (Liberec) or P. aeruginosa (Liberec) cultivated overnight in BHI medium was diluted with fresh BHI medium containing 1% glucose to a final concentration to be ca. 10^8 CFU/ml. Then this was pipetted (100 μl) to 96-multiwell polystyrene plate which was incubated at 37° C. under rotary shaking (300 RPM) for 24 h. Medium without bacteria in the wells was used as a negative control. Supernatant from each well was drained and the biofilm formed on the bottom and on the walls of the wells was cautiously washed three times by sterile physiological solution (300 μl). The peptides tested in the concentrations of 1-128 μmol.l^−1 were prepared by twofold serial dilution of their stock solution (1 mmol.l^−1) in fresh BHI medium and then pipetted (100 μl) to the wells with formed biofilms. The biofilms covered by BHI medium without peptide were used as a positive control. The plates were then incubated for 20 h as described above. After that the liquid was drained out and wells were washed twice with sterile physiological solution.
# (§9) The metabolic activity of surviving bacterial cells in the biofilm was determined by staining with MTT (3-(4,5-dimethylthiazol-2-yl)-2,5-diphenyl-2H-tetrazolium bromide) as follows: The mixture of BHI medium (100 μl) and 10 μl of the stock solution of MTT (5 mg/ml in physiological solution) was added to each well and the plate was incubated 40 min at 37° C. The liquid was drained out and the insoluble formazan crystals formed by reduction inside the biofilm were dissolved with dimethyl sulphoxide (100 μl). The intensity of staining in each well was measured as absorbance at 540 nm on a Tecan Infinite M200 Pro reader (Tecan GmbH, Austria). Remaining activity of surviving cells inside the biofilm was expressed for each well in percentage according to the following equation:
# (§10) [formula] where A is the absorbance of the tested compound, ABL is the absorbance of the negative control, and AC is the absorbance of control biofilm.
# in vitro = conditions: human
# Protocol: The peptides in the concentrations 2-200 μmol.l^−1 were incubated with the suspension of human red blood cells (5% v/v) for 1 h at 37° C. in a physiological solution at a final volume of 0.2 ml. The samples were then centrifuged for 5 min at 250 g, and the absorbance of the supernatant was determined at 540 nm. Supernatants of red blood cells suspended in physiological solution and in 0.2% (v/v) TRITON X100 in physiological solution served as controls for zero hemolysis (blank) and 100% hemolysis, respectively. Hemolytic activity is expressed as the peptide concentration required for lysis of 50% of human erythrocytes in the assay (LC50).
# [8] = system: P. aeruginosa (Liberec) biofilm; test: Bacterial biofilm, remaining metabolic activity (MTT); assay type: cell-based, Pseudomonas aeruginosa; conditions: remaining metabolic activity of biofilm, 20 h
# Protocol: as §8, §9, §10
# [9] = peptide concentration 6.25 μmol · l^−1, 20 hours
# [10] = peptide concentration 12.5 μmol · l^−1, 20 hours
# [11] = peptide concentration 25 μmol · l^−1, 20 hours
# [12] = peptide concentration 50 μmol · l^−1, 20 hours
# [13] = peptide concentration 100 μmol · l^−1, 20 hours
# [14] = peptide concentration 200 μmol · l^−1, 20 hours
# [15] = peptide concentration 8 μmol · l^−1
# [16] = peptide concentration 16 μmol · l^−1
# [17] = peptide concentration 32 μmol · l^−1
# [18] = peptide concentration 64 μmol · l^−1
# [19] = peptide concentration 128 μmol · l^−1
Molecule,MIC [1] [µM],MIC [2] [µM],MIC (Candida glabrata DSY 565) [µM],MIC [3] [µM],MIC (Candida krusei ATCC 6258) [µM],MIC [4] [µM],MIC [5] [µM],"Metabolic activity of C. albicans (%) [6, 9] [%]","Metabolic activity of C. albicans (%) [6, 10] [%]","Metabolic activity of C. albicans (%) [6, 11] [%]","Metabolic activity of C. albicans (%) [6, 12] [%]","Metabolic activity of C. albicans (%) [6, 13] [%]","Metabolic activity of C. albicans (%) [6, 14] [%]","Metabolic activity (%) S. aureus (Liberec) [7, 15] [%]","Metabolic activity (%) S. aureus (Liberec) [7, 16] [%]","Metabolic activity (%) S. aureus (Liberec) [7, 17] [%]","Metabolic activity (%) S. aureus (Liberec) [7, 18] [%]","Metabolic activity (%) S. aureus (Liberec) [7, 19] [%]",CC50 at 1 h (in vitro) [µM],"Metabolic activity (%) P. aeruginosa (Liberec) [8, 15] [%]",other results
"Clc1ccccc1C(c1ccccc1)(c1ccccc1)n1ccnc1 [Clotrimazole, reference compound]",0.3,14.2,35,1.4,1,4.6,0.4,39.7,37.6,34.2,28.4,21.8,22.2,,,,,,,,
"OC(Cn1cncn1)(Cn1cncn1)c1ccc(F)cc1F [Fluconazole, reference compound]",2.2,267,950,1.8,516,49.3,2,33.5,30.8,31.7,30.7,32.4,29.2,,,,,,,,
H-GIMSSLMKKLAAIIKK-NH2 [IX],,,,,,,,93.2,54.3,2.3,1.5,1.3,0.8,79.1,53.6,54.0,30.5,23.6,> 400,73.6,"Metabolic activity (%) P. aeruginosa (Liberec) [8, 16]: 76.8%; Metabolic activity (%) P. aeruginosa (Liberec) [8, 17]: 85.3%; Metabolic activity (%) P. aeruginosa (Liberec) [8, 18]: 83.8%; Metabolic activity (%) P. aeruginosa (Liberec) [8, 19]: 34.2%"
H-GIMSSLMKKLKKIIAK-NH2 [I],,,,,,,,100.4,108.0,130.7,57.5,28.2,8.1,111.6,103.3,111.2,101.9,11.4,> 400,86.4,"Metabolic activity (%) P. aeruginosa (Liberec) [8, 16]: 87.7%; Metabolic activity (%) P. aeruginosa (Liberec) [8, 17]: 89.6%; Metabolic activity (%) P. aeruginosa (Liberec) [8, 18]: 62.9%; Metabolic activity (%) P. aeruginosa (Liberec) [8, 19]: 43.4%"
